Measured values from ChEMBL document CHEMBL4699456 (Bioorg Med Chem Lett, 2020).

Legend:
Assay type in all cases: ADME, organism-based
[1] = Oral bioavailability in BALB/c mouse at 10 mg/kg; conditions: in vivo
[2] = Volume of distribution at steady state in BALB/c mouse at 2 mg/kg, iv; conditions: in vivo, read-out: Vdss
[3] = AUC in BALB/c mouse at 10 mg/kg, po; design: dose 10 mg/kg; conditions: in vivo
[4] = Cmax in BALB/c mouse at 10 mg/kg, po; design: route oral, dose 10 mg/kg; conditions: in vivo

| SMILES | bioavailability [1] | Vd [2] | AUC [3] | Cmax [4] |
| --- | --- | --- | --- | --- |
| O=C(O)[C@H]1CC[C@H](C(=O)N2CC[C@](c3ccc(C(OCc4c(F)cccc4F)(C(F)(F)F)C(F)(F)F)cc3)(S(=O)(=O)c3ccc(F)cc3)C2)CC1 | 56% | 1.3 L/kg | 11.3 µM·h | 2.1 µM |
| O=C(O)[C@H]1CC[C@H](C(=O)N2CC[C@](c3ccc(C(OCC4CCCCC4)(C(F)(F)F)C(F)(F)F)cc3)(S(=O)(=O)c3ccc(F)cc3)C2)CC1 | 101% | 1.7 L/kg | 36.8 µM·h | 4.9 µM |
